Measured values: patent publication US20100152434A1, “Protein Kinase-binding Nucleosides and Associated Methods” (priority 2007, published 2010)
Read-outs that look alike come from different tables or passages of the source.

Tests used:
NCI-H226 [1] = assay: cells; details: Homo sapiens, NCI-H226
SNB-75 [2] = test system: SNB-75
CAKI-1 = assay: cells; details: Homo sapiens, CAKI-1
MDA-MB-231/ATCC = assay: cells; details: Homo sapiens, MDA-MB-231
BT-549 = assay: cells; details: Homo sapiens, BT-549
MDA-MB-435 = MDA-MB-435 (Melanoma panel)
RXF 393 [3] = details: RXF 393
SNB-75 [4] = assay: cells; details: Homo sapiens, SNB-75
NCI-H460 = assay: cells; details: Homo sapiens, NCI-H460
NCI-H226 [5] = test system: NCI-H226
EKVX = assay: cells; details: Homo sapiens
RXF 393 [6] = assay: cells; details: Homo sapiens, RXF 393
NCI-H522 = assay: cells; details: Homo sapiens, NCI-H522
SNB-19 = assay: cells; details: Homo sapiens, SNB-19
M14 = assay: cells; details: Homo sapiens, M14
NCI-H23 = assay: cells; details: Homo sapiens, NCI-H23
OVCAR-5 = assay: cells; details: Homo sapiens, OVCAR-5
[7] = Log10 Concentration −4.0, Molar
[8] = Log10 Concentration −5.0, Molar
[9] = Log10 Concentration −6.0, Molar
[10] = Log10 Concentration −7.0, Molar
[11] = Log10 Concentration −8.0, Molar

## CNC(=O)NC[C@H]1O[C@@H](n2cnc3c(NC(=O)Nc4ccccc4)ncnc32)C(O[Si](C)(C)C(C)(C)C)[C@H]1O[Si](C)(C)C(C)(C)C (stereo partly shown) [Compound 25, 2′,3′-Bis-O-(tert-butyldimethylsilyl)-5-deoxy-5′-[(N-methylcarbamoyl)amino]-N^6-(N-phenylcarbamoyl)adenosine]
NCI-H226 [1]
  GI50: 3.1 µM
  IC50: > 100 µM
SNB-75 [2]
  TGI: 3.41E−5 Molar
SNB-75 [2]; [7]
  Percent Growth: −12%
SNB-75 [2]; [8]
  Percent Growth: 14%
SNB-75 [2]; [9]
  Percent Growth: 73%
SNB-75 [2]; [10]
  Percent Growth: 95%
SNB-75 [2]; [11]
  Percent Growth: 94%
CAKI-1
  GI50: 2.7 µM
  IC50: > 100 µM
MDA-MB-231/ATCC
  GI50: 2.81 µM
  IC50: 28.3 µM
HCT-116
  TGI: 4.31E−6 Molar
HCT-116; [7]
  Percent Growth: −100%
HCT-116; [8]
  Percent Growth: −59%
HCT-116; [9]
  Percent Growth: 102%
HCT-116; [10]
  Percent Growth: 105%
HCT-116; [11]
  Percent Growth: 107%
T-47D
  TGI: 1.03E−5 Molar
T-47D; [7]
  Percent Growth: −32%
T-47D; [9]
  Percent Growth: 92%
T-47D; [10]
  Percent Growth: 105%
T-47D; [11]
  Percent Growth: 101%
OVCAR-4
  TGI: 4.39E−5 Molar
OVCAR-4; [7]
  Percent Growth: −4%
OVCAR-4; [8]
  Percent Growth: 7%
OVCAR-4; [9]
  Percent Growth: 100%
OVCAR-4; [10]
  Percent Growth: 106%
OVCAR-4; [11]
  Percent Growth: 106%
BT-549
  GI50: 2.92 µM
  IC50: > 100 µM
MDA-MB-435
  TGI: 2.91E−5 Molar
MDA-MB-435; Log10 Concentration −4.0 Molar
  Percent Growth: −10%
MDA-MB-435; Log10 Concentration −5.0 Molar
  Percent Growth: 9%
MDA-MB-435; Log10 Concentration −6.0 Molar
  Percent Growth: 97%
MDA-MB-435; Log10 Concentration −7.0 Molar
  Percent Growth: 102%
MDA-MB-435; Log10 Concentration −8.0 Molar
  Percent Growth: 102%
MALME-3M
  TGI: 9.84E−6 Molar
MALME-3M; [7]
  Percent Growth: −48%
MALME-3M; [8]
  Percent Growth: −1%
MALME-3M; [9]
  Percent Growth: 96%
MALME-3M; [10]
  Percent Growth: 88%
MALME-3M; [11]
  Percent Growth: 105%
IGROV1
  TGI: 7.76E−6 Molar
IGROV1; [7]
  Percent Growth: −39%
IGROV1; [8]
  Percent Growth: −12%
IGROV1; [9]
  Percent Growth: 98%
IGROV1; [10]
  Percent Growth: 99%
IGROV1; [11]
  Percent Growth: 100%
A498
  TGI: 4.06E−6 Molar
A498; [7]
  Percent Growth: −75%
A498; [8]
  Percent Growth: −39%
A498; [9]
  Percent Growth: 90%
A498; [10]
  Percent Growth: 97%
A498; [11]
  Percent Growth: 92%
RXF 393 [3]
  TGI: 4.01E−6 Molar
RXF 393 [3]; [7]
  Percent Growth: −77%
RXF 393 [3]; [8]
  Percent Growth: −73%
RXF 393 [3]; [9]
  Percent Growth: 111%
RXF 393 [3]; [10]
  Percent Growth: 73%
RXF 393 [3]; [11]
  Percent Growth: 96%
SNB-75 [4]
  GI50: 2.43 µM
  IC50: > 100 µM
NCI-H460
  GI50: 1.72 µM
  IC50: 7.11 µM
NCI-H226 [5]
  TGI: 3.63E−6 Molar
NCI-H226 [5]; [7]
  Percent Growth: −48%
NCI-H226 [5]; [8]
  Percent Growth: −7%
NCI-H226 [5]; [9]
  Percent Growth: 105%
NCI-H226 [5]; [10]
  Percent Growth: 106%
NCI-H226 [5]; [11]
  Percent Growth: 102%
SN12C
  TGI: 3.38E−6 Molar
SN12C; [7]
  Percent Growth: −90%
SN12C; [8]
  Percent Growth: −87%
SN12C; [9]
  Percent Growth: 98%
SN12C; [10]
  Percent Growth: 100%
SN12C; [11]
  Percent Growth: 100%
EKVX
  GI50: 3.7 µM
  IC50: > 100 µM
RXF 393 [6]
  GI50: 2.14 µM
  IC50: 7.5 µM
LOX IMVI
  TGI: 3.36E−6 Molar
LOX IMVI; [7]
  Percent Growth: −77%
LOX IMVI; [8]
  Percent Growth: −89%
LOX IMVI; [9]
  Percent Growth: 98%
LOX IMVI; [10]
  Percent Growth: 101%
LOX IMVI; [11]
  Percent Growth: 102%
NCI-H522
  GI50: 2.39 µM
  IC50: > 100 µM
SNB-19
  GI50: 4.57 µM
  IC50: > 100 µM
M14
  GI50: 4.33 µM
  IC50: 93.8 µM
NCI-H23
  GI50: 3.17 µM
  IC50: 85 µM
OVCAR-5
  GI50: 5.24 µM
  IC50: > 100 µM
SK-OV-3
  TGI: >1.00E−4 Molar
SK-OV-3; [7]
  Percent Growth: 5%
SK-OV-3; [8]
  Percent Growth: 39%
SK-OV-3; [9]
  Percent Growth: 107%
SK-OV-3; [10]
  Percent Growth: 113%
SK-OV-3; [11]
  Percent Growth: 106%
